Data as given in the NIST ThermoML archive (doi:10.1016/j.fluid.2007.01.001).
Numbers after ± are expanded uncertainties.

Assay: xn = mol fraction of the nth substance listed
Conditions: 101 kPa, Liquid; for viscosity: Capillary tube (Ostwald / Ubbelohde) method; for speed of sound: Frequency=2 MHz, Linear variable-path acoustic interferometer; for mass density: Pycnometric method

CCCCCC(C)O (stereo not given) [2-heptanol] + Cc1ccccc1
Conditions | mass density, 298.15 K [kg/m3] | mass density, 308.15 K [kg/m3] | speed of sound, 298.15 K [m/s] | speed of sound, 308.15 K [m/s] | viscosity, 298.15 K [mPa·s] | viscosity, 308.15 K [mPa·s]
x2 = 0 | 813.74 ± 0.69 | 804.88 ± 0.7 | 1314 ± 3 | 1274 ± 3 | 5.088 ± 0.41 | 3.683 ± 0.3
x2 = 0.0514 | 815.49 ± 0.7 | 806.49 ± 0.7 | 1309 ± 3 | 1267 ± 3 | 4.335 ± 0.35 | 3.171 ± 0.26
x2 = 0.1014 | 817.27 ± 0.7 | 808.2 ± 0.71 | 1303 ± 3 | 1261 ± 3 | 3.878 ± 0.31 | 2.776 ± 0.22
x2 = 0.1469 | 818.88 ± 0.71 | 809.75 ± 0.72 | 1298 ± 3 | 1256 ± 3 | 3.392 ± 0.27 | 2.459 ± 0.2
x2 = 0.2008 | 820.83 ± 0.71 | 811.62 ± 0.72 | 1293 ± 3 | 1251 ± 3 | 2.918 ± 0.23 | 2.155 ± 0.17
x2 = 0.2519 | 822.7 ± 0.72 | 813.37 ± 0.73 | 1288 ± 3 | 1246 ± 3 | 2.526 ± 0.2 | 1.875 ± 0.15
x2 = 0.3007 | 824.54 ± 0.73 | 815.12 ± 0.74 | 1283 ± 3 | 1243 ± 3 | 2.195 ± 0.18 | 1.665 ± 0.13
x2 = 0.348 | 826.33 ± 0.73 | 816.85 ± 0.74 | 1279 ± 3 | 1238 ± 3 | 1.9 ± 0.15 | 1.485 ± 0.12
x2 = 0.4006 | 828.45 ± 0.74 | 818.86 ± 0.75 | 1276 ± 3 | 1235 ± 3 | 1.622 ± 0.13 | 1.332 ± 0.11
x2 = 0.4526 | 830.61 ± 0.74 | 820.97 ± 0.75 | 1272 ± 3 | 1232 ± 3 | 1.396 ± 0.11 | 1.199 ± 0.096
x2 = 0.5002 | 832.62 ± 0.75 | 822.92 ± 0.75 | 1271 ± 3 | 1230 ± 3 | 1.24 ± 0.1 | 1.078 ± 0.087
x2 = 0.5501 | 834.9 ± 0.75 | 825.13 ± 0.76 | 1269 ± 3 | 1229 ± 3 | 1.064 ± 0.085 | 0.992 ± 0.08
x2 = 0.6011 | 837.36 ± 0.76 | 827.5 ± 0.77 | 1268 ± 3 | 1228 ± 3 | 0.931 ± 0.075 | 0.904 ± 0.073
x2 = 0.6574 | 840.16 ± 0.77 | 830.22 ± 0.77 | 1268 ± 3 | 1229 ± 3 | 0.853 ± 0.068 | 0.818 ± 0.066
x2 = 0.7011 | 842.5 ± 0.77 | 832.53 ± 0.77 | 1269 ± 3 | 1230 ± 3 | 0.778 ± 0.062 | 0.756 ± 0.061
x2 = 0.756 | 845.59 ± 0.77 | 835.62 ± 0.77 | 1273 ± 3 | 1234 ± 3 | 0.741 ± 0.059 | 0.679 ± 0.055
x2 = 0.8 | 848.22 ± 0.77 | 838.25 ± 0.77 | 1276 ± 3 | 1238 ± 3 | 0.691 ± 0.055 | 0.641 ± 0.051
x2 = 0.854 | 851.69 ± 0.77 | 841.71 ± 0.77 | 1283 ± 3 | 1243 ± 3 | 0.65 ± 0.052 | 0.57 ± 0.046
x2 = 0.9009 | 854.88 ± 0.77 | 844.95 ± 0.77 | 1289 ± 3 | 1250 ± 3 | 0.611 ± 0.049 | 0.518 ± 0.042
x2 = 0.9475 | 858.12 ± 0.75 | 848.5 ± 0.75 | 1296 ± 3 | 1258 ± 3 | 0.589 ± 0.047 | 0.501 ± 0.04
